From patent publication US7955816B2, “Design and synthesis of biotinylated probes for N-acyl-ethanolamines” (Universita Degli Studi Di Roma “Tor Vergata”, priority 2006, dated 2011)

Experiments:
[1] = system: AEA membrane transporter (AMT); assay: AMT assay in HaCaT cells: uptake of the radiolabelled compound as substrate; type: cell-based, human; settings: intact HaCaT cells
Description: (§1) HaCaT cells [Maccarrone et al., 2003], were cultured in Dulbecco's minimal essential supplemented with 10% fetal calf serum and 100 units/mL streptomycin/penicillin at 37° C. in a 5% CO2 humidified atmosphere. Cells were split twice a week at 1:5 ratio using 0.05% trypsin (w/v), 0.02% EDTA (w/v) in phosphate-buffered saline (PBS). These cells were grown in six-well plates (2×10^6 cells/well) and were incubated for 10 min at 37° C. with [^3H]AEA (Perkin-Elmer Life Sciences, Inc.; Boston, Mass.) or [^3H]b-AEA, and were washed three times with cold PBS containing 1% bovine serum albumin. To discriminate noncarrier-mediated from carrier-mediated transport of AEA, control experiments were carried out at 4° C. and the values subtracted from those at 37° C. Then, the cells were solubilized in 1 ml of 0.1 M NaOH and neutralized (50 μl of concentrated HCl), and radioactivity was determined by liquid scintillation counting. Incubations were also carried out with different concentrations of [^3H]AEA or [^3H]b-AEA, as indicated in the figures, to determine the apparent Michaelis-Menten constant (Km) and maximum velocity (Vmax). The effect of different compounds on AEA or b-AEA uptake was determined by adding each substance directly to the incubation medium, at different concentrations. The results are shown in FIG. 2A, Table 1 and Table 2.

[2] = target: T1, fatty acid amide hydrolase (FAAH) (Homo sapiens, UniProt O00519); assay: FAAH activity in HaCaT cell extracts, compound as substrate; type: biochemical; settings: for hydrolysis by FAAH (substrate or not): FIG. 2B
T1 construct: The reaction was initiated by the addition of HaCaT cell extracts; endogenous in cells; host or cells: HaCaT cell extracts
T1 sequence (O00519 1-579): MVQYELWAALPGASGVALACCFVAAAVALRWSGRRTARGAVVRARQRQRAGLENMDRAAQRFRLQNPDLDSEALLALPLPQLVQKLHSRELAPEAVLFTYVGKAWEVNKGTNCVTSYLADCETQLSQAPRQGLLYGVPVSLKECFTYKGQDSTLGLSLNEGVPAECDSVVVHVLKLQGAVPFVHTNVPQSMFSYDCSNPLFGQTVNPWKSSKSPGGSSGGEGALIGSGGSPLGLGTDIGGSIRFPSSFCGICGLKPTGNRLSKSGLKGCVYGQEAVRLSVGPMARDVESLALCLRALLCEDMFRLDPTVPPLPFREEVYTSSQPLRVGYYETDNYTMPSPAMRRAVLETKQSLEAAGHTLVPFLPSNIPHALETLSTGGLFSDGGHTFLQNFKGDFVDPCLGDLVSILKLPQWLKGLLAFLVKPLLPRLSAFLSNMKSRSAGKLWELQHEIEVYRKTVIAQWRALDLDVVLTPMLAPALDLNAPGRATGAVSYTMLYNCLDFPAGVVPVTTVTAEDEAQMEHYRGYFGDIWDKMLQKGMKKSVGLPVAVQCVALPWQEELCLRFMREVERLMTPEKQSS
Description: (§2) The assay of fatty acid amide hydrolase (E.C. 3.5.1.4, arachidonoylethanolamide amidohydrolase; FAAH) was performed by measuring the release of [^3H]AA from [^3H]AEA (68 mCi/mmol) or [^3H]b-AEA (10 mCi/mmol) through reversed phase high performance liquid chromatography (RP-HPLC) and on-line scintillation counting. [^3H]AEA or [^3H]b-AEA was added to hydrolase assay buffer (50 mM Tris.HCl, pH 9.0) at the indicated concentrations. The reaction was initiated by the addition of HaCaT cell extracts, was continued at 37° C. for 15 min, and then was stopped by the addition of methanol/chloroform/water, with vortexing. This mixture was centrifuged at 3000×g for 5 min, the lower organic phase was dried and the pellet was resuspended in 20 μl of methanol and subjected to RP-HPLC analysis for AA quantitation. The separations of [^3H]AEA or [^3H]b-AEA from [^3H]AA were carried out on a C18 (5 μm, 3.0×150 mm) column, with a mobile phase of methanol-water-acetic acid (85:15:0.1, v/v/v), at a flow rate of 0.8 ml/min. The amount [^3H]AA formed were calculated from the corresponding peak areas. The effect of different concentrations of b-AEA on [^3H]AEA hydrolysis was ascertained by adding the “cold” compound directly to the assay buffer. FAAH activity was expressed as pmol [^3H]AA released from [^3H]AEA per min per mg protein. The results are shown in FIG. 2B, Table 1 and Table 2.

[3] = system: HaCaT cells; assay: HaCaT cell differentiation (cornified envelope formation); type: cell-based, human; design: dose or concentration left out as unconfirmed; settings: 5 days, FIG. 4
Description: Cell differentiation was induced by treating HaCaT cells with 12-O-tetradecanoylphorbol 13-acetate (TPA; 10 ng/ml) plus calcium chloride (CaCl2; 1.2 mM) for 5 days, as reported [Maccarrone et al., 2003]. AEA and b-AEA (or vehicle in the controls) were added directly to the culture medium at the same time as TPA plus calcium. Cornified envelope (CE), a hallmark of keratinocyte differentiation, was extracted from HaCaT cells (5×10^6/test) by exhaustive boiling and sonication in 2% SDS, 20 mM dithiothreitol, 0.1 M Tris-HCl pH 8.0, and 0.5 mM EDTA. CEs were then purified on Ficoll gradients and recovered as sonicated fragments, free of soluble keratin/filaggrin proteins, after pelleting through Ficoll as previously described [Maccarrone et al., 2003]. CE formation was quantified by spectrophotometry at 600 nm and was normalized to the protein content.

[4] = system: HaCaT cells; settings: Maccarrone et al., 2003, cited from earlier work
[5] = system: HaCaT cells; assay: Fluorescence microscopy of b-AEA transport in HaCaT cells; type: cell-based, human
Description: HaCaT cells were plated at a density of 6×10^4 cells/ml on collagen-coated (0.5 mg/ml; Sigma, St. Louis, Mo.) glass coverslips (12 mm). Twenty-four hours after plating, cultures were either left untreated (by adding […] biotin EZ-Link Biotin-PEO-Amine, as negative control) or incubated with […] b-AEA for 10 min at 37° C. in a 5% CO2 humidified atmosphere. […] All steps of the immunofluorescence procedure were performed at room temperature. Cells were washed, fixed with 3% paraformaldehyde (Sigma) for 20 min, and then permeabilized with 0.1% Triton X-100 in PBS for 15 min. After a blocking step in Image-iT™ FX signal enhancer (Molecular Probes, Eugene, Oreg.) for 30 min, cells were incubated for 1 h with anti-biotin primary antibody (Molecular Probes, Eugene, Oreg.), diluted 1:50 in Image-iT™ FX signal enhancer. […] N-Piperidino-5-(4-chlorophenyl)-1-(2,4-dichloro-phenyl)-4-methyl-3-pyrazole carboxamide (SR141716), and N-[1(S)-endo-1,3,3-trimethyl-bicyclo[2.2.1]heptan-2-yl]-5-(4-chloro-3-methylphenyl)-1-(4-methyl-benzyl)-pyrazole-3-carboxa-mide (SR144528) were kind gifts from Sanofi-Aventis Recherche (Montpellier, France). OMDM-1 was a kind gift from Dr. S. Marinelli (Experimental Neurology, IRCCS Fondazione Santa Lucia, Rome, Italy).

[6] = target: T2, CB1R (Homo sapiens, UniProt P21554); type: binding; settings: HaCaT membranes, FIG. 2C
T2 construct: endogenous in cells; host or cells: HaCaT cell membrane fractions

[7] = system: AEA membrane transporter (AMT); assay: Inhibition of [3H]AEA uptake by AMT in intact HaCaT cells; type: cell-based, human; settings: 0.5 μM [3H]AEA, read-out: IC50 for reduction of AEA uptake by AMT
Description: as §1

[8] = target: T1, fatty acid amide hydrolase (FAAH); assay: Inhibition of [3H]AEA hydrolysis by FAAH in HaCaT cell extracts; type: biochemical; settings: at concentrations up to 10 μM
Description: as §2

[9] = target: T3, NAPE-PLD (Homo sapiens, UniProt Q6IQ20); assay: NAPE-PLD activity in HaCaT cell extracts; type: biochemical; settings: at concentrations up to 10 μM
T3 construct: endogenous in cells; host or cells: HaCaT cell extracts
Description: HaCaT cell extracts (100 μg/test) were incubated at 37° C. for 30 min with a clear mixture of [^3H]NArPE (ARC; St. Louis, Mo.) and NArPE (“cold” NArPE was synthesized from AA and phosphatidylethanolamine) at a final specific activity of 6.8 nCi/nmol, in 200 μl of 50 mM Tris-HCl, pH 7.4, containing 0.1% Triton X-100. A mixture of chloroform/methanol (2:1, v/v; 600 μl) was added to stop the reaction. Then, the samples were vortexed and centrifuged at room temperature, and the lower organic phase was dried. The pellet was resuspended in 20 μl of methanol and subjected to RP-HPLC coupled to on-line scintillation counting. The separations were carried out on a C18 (5 μm, 3.0×150 mm) column with a mobile phase of methanol-water-acetic acid (85:15:0.1, v/v/v), at a flow rate of 0.8 ml/min. The amount of [^3H]AEA formed was calculated from the corresponding peak areas. The identity of the peaks was assessed also by UV detection of cold standard, recording absorbance at 204 nm. The effect of b-AEA on NAPE-PLD activity was ascertained by adding different concentrations of the biotin-derivative directly to the assay buffer. NAPE-PLD activity was expressed as pmol [^3H]AEA released from [^3H]NArPE per min per mg protein.

[10] = target: T4, CB1R (Mus musculus, UniProt P47746); assay: [3H]CP55.940 binding in mouse brain membrane fractions; settings: mouse brain membranes, read-out: IC50 on CB1 receptors
T4 construct: membrane preparations from mouse brain or mouse spleen were used; from tissue; host or cells: mouse brain membrane fractions

[11] = target: T5, CB2R (Mus musculus, UniProt P47936); assay: [3H]CP55.940 binding in mouse spleen membrane fractions; settings: mouse spleen membranes, read-out: IC50 on CB2 receptors
T5 construct: membrane preparations from mouse brain or mouse spleen were used; from tissue; host or cells: mouse spleen membrane fractions

[12] = target: T6, TRPV1 (Rattus norvegicus, UniProt O35433); assay: [3H]RTX binding in C6 cells membrane fractions; settings: competition with [3H]RTX; read-out: IC50 on TRPV1 receptors
T6 construct: membrane fractions isolated from rat neuroblastoma C6 cells were used; endogenous in cells; host or cells: rat C6 cells, membrane fractions
T6 sequence (O35433 whole entry): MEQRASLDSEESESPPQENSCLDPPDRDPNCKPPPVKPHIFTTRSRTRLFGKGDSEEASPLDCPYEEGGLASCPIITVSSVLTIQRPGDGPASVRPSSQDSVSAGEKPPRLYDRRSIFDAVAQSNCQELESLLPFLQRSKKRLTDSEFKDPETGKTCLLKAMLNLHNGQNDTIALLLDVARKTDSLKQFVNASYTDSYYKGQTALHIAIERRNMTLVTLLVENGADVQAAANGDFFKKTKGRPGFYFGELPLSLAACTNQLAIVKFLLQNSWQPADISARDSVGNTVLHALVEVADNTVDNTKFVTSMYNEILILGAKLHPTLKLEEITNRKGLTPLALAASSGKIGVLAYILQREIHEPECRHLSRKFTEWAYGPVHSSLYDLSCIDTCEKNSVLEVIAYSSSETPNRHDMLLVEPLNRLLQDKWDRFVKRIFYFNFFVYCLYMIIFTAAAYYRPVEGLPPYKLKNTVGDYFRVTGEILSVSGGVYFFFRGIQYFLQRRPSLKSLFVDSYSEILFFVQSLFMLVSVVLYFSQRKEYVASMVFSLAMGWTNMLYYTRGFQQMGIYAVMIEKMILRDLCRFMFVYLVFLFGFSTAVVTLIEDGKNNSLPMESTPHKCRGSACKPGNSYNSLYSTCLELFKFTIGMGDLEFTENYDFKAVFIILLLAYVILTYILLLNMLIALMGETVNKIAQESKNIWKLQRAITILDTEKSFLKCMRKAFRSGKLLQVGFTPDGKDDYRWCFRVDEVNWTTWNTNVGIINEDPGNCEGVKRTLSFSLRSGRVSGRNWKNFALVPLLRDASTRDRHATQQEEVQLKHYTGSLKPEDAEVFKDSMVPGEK

T4 sequence (P47746 whole entry): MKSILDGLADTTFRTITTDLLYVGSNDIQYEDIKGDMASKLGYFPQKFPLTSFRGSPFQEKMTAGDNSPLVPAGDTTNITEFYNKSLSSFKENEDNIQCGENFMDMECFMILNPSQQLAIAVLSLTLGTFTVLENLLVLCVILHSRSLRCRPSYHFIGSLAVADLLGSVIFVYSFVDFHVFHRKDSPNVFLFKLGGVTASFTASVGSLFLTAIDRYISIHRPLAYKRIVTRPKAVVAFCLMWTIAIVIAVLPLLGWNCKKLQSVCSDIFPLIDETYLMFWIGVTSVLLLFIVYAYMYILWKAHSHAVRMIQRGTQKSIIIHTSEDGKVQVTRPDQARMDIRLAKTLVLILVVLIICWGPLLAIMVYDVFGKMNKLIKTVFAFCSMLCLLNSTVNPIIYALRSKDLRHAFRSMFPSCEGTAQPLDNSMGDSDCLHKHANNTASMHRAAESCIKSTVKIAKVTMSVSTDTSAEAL
T2 sequence (P21554 whole entry): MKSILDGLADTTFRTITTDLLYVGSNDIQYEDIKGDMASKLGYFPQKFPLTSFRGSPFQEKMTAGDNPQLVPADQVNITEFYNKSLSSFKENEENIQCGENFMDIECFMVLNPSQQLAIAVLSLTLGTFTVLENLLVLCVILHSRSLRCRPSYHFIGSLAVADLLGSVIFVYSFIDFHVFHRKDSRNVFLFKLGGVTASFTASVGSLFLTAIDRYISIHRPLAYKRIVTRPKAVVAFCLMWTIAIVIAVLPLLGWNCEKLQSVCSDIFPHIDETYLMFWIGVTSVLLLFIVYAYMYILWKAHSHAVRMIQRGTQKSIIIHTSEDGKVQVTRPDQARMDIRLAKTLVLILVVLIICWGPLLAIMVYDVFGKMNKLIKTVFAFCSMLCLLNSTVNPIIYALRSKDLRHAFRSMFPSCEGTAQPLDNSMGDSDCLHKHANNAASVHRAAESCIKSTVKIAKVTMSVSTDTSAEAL
T5 sequence (P47936 whole entry): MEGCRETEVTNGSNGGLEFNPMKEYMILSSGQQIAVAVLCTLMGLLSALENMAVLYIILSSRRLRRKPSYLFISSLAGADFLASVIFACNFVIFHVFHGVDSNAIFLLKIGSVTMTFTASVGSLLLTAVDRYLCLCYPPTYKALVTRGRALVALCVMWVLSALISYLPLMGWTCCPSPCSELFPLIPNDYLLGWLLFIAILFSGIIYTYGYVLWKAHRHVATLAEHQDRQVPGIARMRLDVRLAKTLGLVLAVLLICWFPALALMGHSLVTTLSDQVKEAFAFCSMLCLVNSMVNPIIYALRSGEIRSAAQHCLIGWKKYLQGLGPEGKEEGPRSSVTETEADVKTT
T3 sequence (Q6IQ20 whole entry): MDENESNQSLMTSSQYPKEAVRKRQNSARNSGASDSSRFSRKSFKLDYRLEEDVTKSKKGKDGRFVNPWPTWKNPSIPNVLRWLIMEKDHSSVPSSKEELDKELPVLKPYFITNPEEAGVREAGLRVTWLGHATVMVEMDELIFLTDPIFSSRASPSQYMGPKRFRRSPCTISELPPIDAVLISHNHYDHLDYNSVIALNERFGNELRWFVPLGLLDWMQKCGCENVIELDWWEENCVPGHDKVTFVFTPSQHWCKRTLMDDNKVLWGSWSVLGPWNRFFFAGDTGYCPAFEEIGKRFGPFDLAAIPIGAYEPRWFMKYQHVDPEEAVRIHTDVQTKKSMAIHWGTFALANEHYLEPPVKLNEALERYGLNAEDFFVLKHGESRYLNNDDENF

## CCCCC/C=C\C/C=C\C/C=C\C/C=C\CCCC(=O)NCCO [AEA, N-arachidonoylethanolamine]
[1]
  AMT Vmax: 124 ± 8 pmol/min per mg protein
  Km: 0.353 ± 0.06 µM
[2]
  hydrolysis by FAAH (substrate or not): hydrolyzed in a concentration-dependent manner
[2]; compound as substrate
  FAAH Vmax: 385 ± 25 pmol/min per mg protein
[3]
  effect on HaCaT cell differentiation (CE formation induced by TPA+calcium): blocked
[4]; maximum effect at 1 μM
  effect on CE formation in HaCaT cells: dose-dependently reduces CE formation

## CCCCCCCC/C=C\CCCCCCCC(=O)N[C@H](CO)Cc1ccc(O)cc1 [OMDM-1]
[5]; 5 μM, added 5 min before probe
  effect on b-AEA immunostaining (uptake) of HaCaT cells: remarkable decrease of immunostaining

## Cc1c(C(=O)NN2CCCCC2)nn(-c2ccc(Cl)cc2Cl)c1-c1ccc(Cl)cc1 [SR141716, N-Piperidino-5-(4-chlorophenyl)-1-(2,4-dichloro-phenyl)-4-methyl-3-pyrazole carboxamide]
[4]; 0.1 μM
  reversal of the AEA effect on CE formation: fully reversed

## NC(=O)c1cccc(-c2cccc(OC(=O)NC3CCCCC3)c2)c1 [URB597]
[5]; 1 μM, added 5 min before probe
  effect on uptake and intracellular trafficking of b-AEA in HaCaT cells: did not affect

## CCCCC/C=C\C/C=C\C/C=C\C/C=C\CCCC(=O)NCCOCCOCCNC(=O)CCCC[C@@H]1SC[C@@H]2NC(=O)N[C@@H]21 [b-AEA, (+)-N-arachidonoyl-biotinyl-3,6-dioxaoctanediamine]
[1]
  AMT Vmax: 116 ± 10 pmol/min per mg protein
  Km: 0.421 ± 0.088 µM
[1]; listed as [^3H]b-AEA
  AMT Vmax: 116 ±10 pmol/min per mg protein
[2]
  hydrolysis by FAAH (substrate or not): not a substrate for FAAH
[6]
  binding to CB1 receptors of HaCaT cells: did not bind
[7]
  IC50: 0.5 ± 0.1 µM
[8]
  effect on FAAH activity of HaCaT cells: does not affect
[9]
  effect on NAPE-PLD activity of HaCaT cells: does not affect
[10]
  IC50: > 10 µM
[11]
  IC50: > 10 µM
[12]
  IC50: > 10 µM
[5]; 5 M per test, FIG. 3
  uptake by HaCaT cells seen by immunofluorescence: cells quickly take up b-AEA
[3]
  effect on HaCaT cell differentiation (CE formation induced by TPA+calcium): ineffective
